Common to all, as to type: in vivo
One test deals with Viola tricolor. Kind of test: Pre-emergence herbicidal action, greenhouse, 320 g/ha. The note with it: application rate 320 g/ha, Table B8. The text has this:
(§1) Seeds of monocotyledonous and dicotyledonous weed plants and crop plants were placed in plastic or organic planting pots and covered with soil. The compounds of the invention, formulated in the form of wettable powders (WP) or as emulsion concentrates (EC), were then applied to the surface of the covering soil as aqueous suspension or emulsion with addition of 0.5% additive at a water application rate equivalent to […]. After the treatment, the pots were placed in a greenhouse and kept under good growth conditions for the test plants. After about 3 weeks, the effect of the preparations is scored visually in comparison with untreated controls as percentages. For example, 100% activity=the plants have died, 0% activity=like control plants. Tables B1 to B14 below show the effects of selected compounds of the general formula (I) according to Tables I.1 to I.150 on various harmful plants and at an application rate corresponding to 320 g/ha, which were obtained by the experimental procedure mentioned above.

The next test relates to Setaria viridis. The test is described as above. Conditions: application rate 320 g/ha, Table B11.
Text: as §1

The next test has as its system Polygonum convolvulus. The test is described as above. The note with it: application rate 320 g/ha, scored visually after about 3 weeks vs untreated controls.
Text: as §1

The test system of test [1] is Amaranthus retroflexus. The description is as above. The note with it: application rate 320 g/ha, scored visually after about 3 weeks vs untreated controls.
Text: as §1

In the next test the test system is Digitaria sanguinalis. The test is described as above. Conditions: application rate 320 g/ha, Table B9.
Text: as §1

The subject of another test is Pharbitis purpurea. The test is described as above. The note with it: application rate 320 g/ha, Table B12.
Text: as §1

In test [2] the test system is Matricaria inodora. The description is as above. Conditions: application rate 320 g/ha, scored visually after about 3 weeks vs untreated controls.
Text: as §1

The subject of test [3] is Stellaria media. The description is as above. Conditions: application rate 320 g/ha, scored visually after about 3 weeks vs untreated controls.
Text: as §1

Another test deals with Avena fatua. The test is described as above. Conditions: application rate 320 g/ha, scored visually after about 3 weeks vs untreated controls.
Text: as §1

Another test relates to Alopecurus myosuroides. The description is as above. Conditions: application rate 320 g/ha, scored visually after about 3 weeks vs untreated controls.
Text: as §1

Test [4] concerns Stellaria media. Kind of test: Herbicidal post-emergence action (Part 2), 1280 g/ha. Conditions: application rate 1280 g/ha, rated visually after about 3 weeks, Table C7. The procedure: (§2) Seeds of mono- and dicotyledonous weed plants were placed in plastic pots in sandy loam soil (doubly sown with in each case one species of mono- or dicotyledonous weed plants per pot), covered with soil and cultivated in a greenhouse under controlled growth conditions. 2 to 3 weeks after sowing, the test plants were treated at the one-leaf stage. The compounds of the invention, formulated in the form of wettable powders (WP) or as emulsion concentrates (EC), were applied onto the green parts of the plants as aqueous suspension or emulsion with addition of 0.5% additive at a water application rate of 600 liters per hectare (converted). After the test plants had been kept in the greenhouse under optimum growth conditions for about 3 weeks, the activity of the preparations was rated visually in comparison to untreated controls. For example, 100% activity=the plants have died, 0% activity=like control plants. Tables C1 to C7 below show the effects of selected compounds of the general formula (I) according to Tables 1.1 to 1.150 on various harmful plants and at an application rate corresponding to 1280 g/ha, which were obtained by the experimental procedure mentioned above.

Test [5] relates to Amaranthus retroflexus. The test is described as above. Conditions: application rate 1280 g/ha, rated visually after about 3 weeks, Table C5. The procedure:
as §2

Test [6] has as its system Matricaria inodora. Kind of test: Herbicidal pre-emergence action (Part 2), 1280 g/ha. Conditions: application rate 1280 g/ha, scored visually after about 3 weeks, Table D7. The text has this:
(§3) Seeds of mono- and dicotyledonous weed plants were placed in plastic pots in sandy loam soil (doubly sown with in each case one species of mono- or dicotyledonous weed plants per pot) and covered with soil. The compounds of the invention, formulated in the form of wettable powders (WP) or as emulsion concentrates (EC), were then applied onto the surface of the covering soil as aqueous suspension or emulsion with addition of 0.5% additive at a water application rate of 600 liters per hectare (converted). After the treatment, the pots were placed in a greenhouse and kept under good growth conditions for the test plants. After about 3 weeks, the effect of the preparations was scored visually in comparison with untreated controls as percentages. For example, 100% activity=the plants have died, 0% activity=like control plants. Tables D1 to D8 below show the effects of selected compounds of the general formula (I) according to Tables 1.1 to 1.150 on various harmful plants and at an application rate corresponding to 1280 g/ha, which were obtained by the experimental procedure mentioned above.

Test [7] concerns Stellaria media. The test is described as above. Conditions: application rate 1280 g/ha, scored visually after about 3 weeks, Table D8.
Text: as §3

Test [8] relates to Amaranthus retroflexus. The description is as above. Conditions: application rate 1280 g/ha, scored visually after about 3 weeks, Table D6.
Text: as §3

The subject of a further test is Abutilon theophrasti. The test is described as above. Conditions: application rate 1280 g/ha, scored visually after about 3 weeks, Table D5.
Text: as §3

The next test concerns Poa annua. The test is described as above. The note with it: application rate 1280 g/ha, scored visually after about 3 weeks, Table D3.
Text: as §3

`Cc1c(N2C(=O)N(C)CCC2O)noc1C(C)(C)C` (stereo not shown) [I.1-177]: the “Viola tricolor (efficacy in %)” value in the test with Viola tricolor amounted to 90%. For the same molecule, the “Setaria viridis (efficacy in %)” value in the test with Setaria viridis is given as 90%. For the same molecule, the “Polygonum convolvulus (efficacy in %)” value in the test with Polygonum convolvulus was determined as 100%. Besides, the “Amaranthus retroflexus (efficacy in %)” value in the test on Amaranthus retroflexus [1] is 90%. In addition, the “Digitaria sanguinalis (efficacy in %)” value in the test with Digitaria sanguinalis is reported as 100%.
As for `COCC(C)(C)c1cc(N2C(=O)N(C)CCC2O)no1` (stereo not shown) [I.1-200], in the test on Viola tricolor, the “Viola tricolor (efficacy in %)” value was determined as 80%. Besides, the “Pharbitis purpurea (efficacy in %)” value with Pharbitis purpurea stood at 100%. Besides, the “Matricaria inodora (efficacy in %)” value with Matricaria inodora [2] came to 90%. Moreover, the “Stellaria media (efficacy in %)” value with Stellaria media [3] is 80%.
For `CN1CCC(O)N(c2noc(C(C)(C)C)c2Br)C1=O` (stereo not shown) [I.1-207], in the test on Viola tricolor, the “Viola tricolor (efficacy in %)” value is 100%. The “Avena fatua (efficacy in %)” value in the test on Avena fatua stood at 90%. Moreover, the “Setaria viridis (efficacy in %)” value with Setaria viridis was determined as 100%. Besides, in the test on Pharbitis purpurea, the “Pharbitis purpurea (efficacy in %)” value stood at 100%. In addition, the “Stellaria media (efficacy in %)” value with Stellaria media [3] is 100%. Further, the “Polygonum convolvulus (efficacy in %)” value with Polygonum convolvulus is given as 100%. For the same molecule, the “Amaranthus retroflexus (efficacy in %)” value in the test on Amaranthus retroflexus [1] worked out at 90%. Also, in the test on Digitaria sanguinalis, the “Digitaria sanguinalis (efficacy in %)” value was found to be 100%.
In the case of `CN1CCC(O)N(c2cc(C(C)(C)F)ncn2)C1=O` (stereo not shown) [I.1-503], the “Viola tricolor (efficacy in %)” value in the test with Viola tricolor was determined as 100%. In addition, in the test on Avena fatua, the “Avena fatua (efficacy in %)” value was determined as 100%. Also, in the test on Matricaria inodora [2], the “Matricaria inodora (efficacy in %)” value came out at 100%.
Consider `CN1CCC(O)N(C2=NOC(C)(C)C2)C1=O` (stereo not shown) [I.1-709], for which the “Stellaria media (efficacy in %)” value in the test with Stellaria media [3] was found to be 100%. The “Polygonum convolvulus (efficacy in %)” value in the test on Polygonum convolvulus stood at 100%. Besides, the “Alopecurus myosuroides (efficacy in %)” value in the test with Alopecurus myosuroides came out at 100%. The “Digitaria sanguinalis (efficacy in %)” value with Digitaria sanguinalis is reported as 100%.
`CC(=O)OC1CCN(C)C(=O)N1c1cc(C(F)(F)F)c(Cl)cn1` (stereo not shown) [I.2-451]: the Stellaria media with Stellaria media [4] and with Stellaria media [7] was 100% throughout. The Amaranthus retroflexus in the test with Amaranthus retroflexus [5] and in the test on Amaranthus retroflexus [8] was 100% each time. In the test on Matricaria inodora [6], this molecule registered a Matricaria inodora of 90%.
As for `CCC(=O)OC1CCN(C)C(=O)N1c1cc(C(F)(F)F)c(Br)cn1` (stereo not shown) [I.3-464], the “Viola tricolor (efficacy in %)” value in the test on Viola tricolor was 100%. Further, in the test with Setaria viridis, the “Setaria viridis (efficacy in %)” value stood at 90%. In addition, the “Stellaria media (efficacy in %)” value with Stellaria media [3] was 100%. Further, the “Polygonum convolvulus (efficacy in %)” value in the test on Polygonum convolvulus came to 90%. Besides, the “Amaranthus retroflexus (efficacy in %)” value with Amaranthus retroflexus [1] came to 90%.
`CCCC(=O)OC1CCN(C)C(=O)N1c1cc(C(C)(C)C)no1` (stereo not shown) [I.4-290] returned an Abutilon theophrasti in the test on Abutilon theophrasti of 100%. The Matricaria inodora with Matricaria inodora [6] was determined as 90%. For the same molecule, the “Poa Annua” value in the test with Poa annua is 90%. The molecule further gave a Stellaria media in the test on Stellaria media [7] of 100%. The molecule also had an Amaranthus retroflexus with Amaranthus retroflexus [8] of 100%.
For the molecule `CCCC(=O)OC1CCN(C)C(=O)N1c1cc(C(F)(F)F)ccn1` (stereo not shown) [I.4-449], the Stellaria media in the test with Stellaria media [4] is 90%; in the test on Stellaria media [7], 100%. Besides, the Amaranthus retroflexus with Amaranthus retroflexus [5] and in the test with Amaranthus retroflexus [8] was 100% in each case. Besides, the Matricaria inodora in the test with Matricaria inodora [6] was 100%. Besides, the “Poa Annua” value in the test with Poa annua is 90%.
Regarding `CCCC(=O)OC1CCN(C)C(=O)N1c1cc(C(F)(F)F)c(Cl)cn1` (stereo not shown) [I.4-451], the Stellaria media in the test with Stellaria media [4] and with Stellaria media [7] was 100% each time. In addition, the Amaranthus retroflexus with Amaranthus retroflexus [5] and in the test with Amaranthus retroflexus [8] was 100% throughout.
Consider `CC1CC(O)N(c2cc(C(F)(F)F)ccn2)C(=O)N1C` (stereo not shown) [I.41-449], for which the “Viola tricolor (efficacy in %)” value in the test on Viola tricolor was found to be 100%. Moreover, the “Matricaria inodora (efficacy in %)” value in the test on Matricaria inodora [2] is 100%. Also, in the test with Stellaria media [3], the “Stellaria media (efficacy in %)” value is recorded as 100%. Also, in the test with Amaranthus retroflexus [1], the “Amaranthus retroflexus (efficacy in %)” value is listed as 100%. For the same molecule, the “Alopecurus myosuroides (efficacy in %)” value in the test on Alopecurus myosuroides is given as 90%.
Consider `CON1CCC(O)N(c2cc(C(C)(C)C)on2)C1=O` (stereo not shown) [I.91-162], for which the “Polygonum convolvulus (efficacy in %)” value with Polygonum convolvulus came out at 100%. For the same molecule, the “Amaranthus retroflexus (efficacy in %)” value in the test on Amaranthus retroflexus [1] is on record as 90%. Moreover, the “Alopecurus myosuroides (efficacy in %)” value with Alopecurus myosuroides was determined as 80%. For the same molecule, the “Digitaria sanguinalis (efficacy in %)” value in the test with Digitaria sanguinalis turned out to be 100%.

Source of the values: patent US20200390100A1, “SUBSTITUTED N-HETEROCYCLYL- AND N-HETEROARYL-TETRAHYDROPYRIMIDINONES AND THE SALTS THEREOF, AND THE USE OF SAME AS HERBICIDAL ACTIVE SUBSTANCES” (Bayer Aktiengesellschaft, priority 2017, published 2020).
